Measurements: paper PMC9238271, “The quorum sensing peptide EntF* promotes colorectal cancer metastasis in mice: a new factor in the host-microbiome interaction” (BMC Biology, 2022)
Several values for one entry are separate records, joined by “and”; a condition that tells them apart may be missing. Equal values may be shown once.

Assays:
[1] = system: EntF*-mediated E-cadherin downregulation in HCT-8 cells; experiment: Antagonist activity analysis by Western blot; format: cell-based
Method: (§1) HCT-8, HT-29, and HT-116 cells were grown in DMEM medium supplied with 10% fetal bovine serum (FBS) and 1% penicillin-streptomycin. Caco-2 cells were grown in DMEM medium supplied with 10% FBS, 1% non-essential amino acid NEAA), and 1% penicillin-streptomycin. Cells were cultured at 37 °C and 5% CO2. As cells reached confluency, they were detached using 0.25% Trypsin-EDTA.
For Western blot analyses, HCT-8 (n = 15), HCT-116 (n = 12), Caco-2 (n = 6), and HT-29 (n = 12) cells were seeded in 6-well plates at a density of 1 × 10^6 cells/well. Twenty-four hours after seeding, all cell lines were treated with 1 μM EntF* or a placebo solution. HCT-8 cells were also tested for responsiveness to 1 μM EntF* synthetic alanine-derived analogs. For antagonist activity analysis, HCT-8 cells were treated with 1 μM Nef-M1 or 1 μM EntF*A1 alone or in combination with 500 nM EntF*. After 24 h, cells were detached from the surface and lysed in RIPA buffer (Thermo Scientific). Protein concentration was determined using the modified Lowry protein assay kit (Thermo Scientific), according to the manufacturer’s instructions. […]
The Kolmogorov-Smirnov test was used to assess if data obtained were normally distributed. […] Cohen’s d values were calculated as a measure of the effect size when similar standard deviations for both groups were found, and sample sizes were the same.

[2] = system: E-cadherin expression in Caco-2 cells; experiment: Western blot of E-cadherin expression, Caco-2 cells; format: cell-based
Method: as §1
For Western blot analyses, HCT-8 (n = 15), HCT-116 (n = 12), Caco-2 (n = 6), and HT-29 (n = 12) cells were seeded in 6-well plates at a density of 1 × 10^6 cells/well. Twenty-four hours after seeding, all cell lines were treated with 1 μM EntF* or a placebo solution. HCT-8 cells were also tested for responsiveness to 1 μM EntF* synthetic alanine-derived analogs. For antagonist activity analysis, HCT-8 cells were treated with 1 μM Nef-M1 or 1 μM EntF*A1 alone or in combination with 500 nM EntF*. After 24 h, cells were detached from the surface and lysed in RIPA buffer (Thermo Scientific). Protein concentration was determined using the modified Lowry protein assay kit (Thermo Scientific), according to the manufacturer’s instructions. Protein samples were diluted to the same concentration (4 μg/μL) with water and diluted again 1:1 using 2x Laemmli buffer. After that, samples were boiled for 5 min at 95 °C to denature proteins and centrifuged for 5 min at 16,000g; supernatants were used for Western blot analyses. Equal amounts of total protein (20 μg/lane) were separated by SDS-PAGE on an Any kD^TM gel (Bio-Rad ) and then transferred to a PVDF membrane. Before incubation with antibodies, non-specific binding sites on the membranes were blocked using 5% skimmed milk solution (1 h). TBS buffer with 0.05% Tween 20 was used for all washing steps. Membranes were incubated overnight at 4 °C with an anti-E-cadherin primary antibody (1/1000 dilution). An HRP-conjugated anti-rabbit antibody (1/2000 dilution, 1 h incubation) was used for chemiluminescent detection. Membranes were incubated with the detection substrate for 5 min and signal detection was performed using the ChemiDoc EZ imager and Image Lab software (Bio-Rad). […]

[3] = Caco-2 monolayer permeability assay; format: in vitro ADME; conditions: Caco-2 Transwell A -> B, 1 µM EntF* apical, HBSS, LC1-MS1; average of AB1-AB6; read-out: Kapp, average
Method: (§2) To avoid the absorption of EntF* onto plasticware and glassware, all tubes and containers were coated with a BSA-based anti-adsorption solution before use.
as §1
(§3) Caco-2 cells were seeded on Transwell polycarbonate membrane filters (0.4 μm pore size, Corning, Germany) at a density of 2.6 × 10^5 cells/cm^2 and permeability tests performed as described by Hubatsch et al.. Cells were submerged with Hank’s balanced salt solution (HBSS), and transepithelial electrical resistance (TEER) was measured before and after the experiment. Peptide solution (1 μM) was added to the apical chamber, and 300 μL aliquots were taken after 30, 60, 90, and 120 min of incubation. Samples were analyzed using LC1-MS1. Linear curve fitting was used to calculate the apparent permeability coefficient (Papp).
(§4) EntF* was detected and quantified on a Waters Acquity® UPLC H-class system, connected to a Waters Xevo™ TQ-S triple quadrupole mass spectrometer with electrospray ionization (operated in positive ionization mode). Autosampler tray and column oven were kept at 10 ± 5 °C and 60 ± 5 °C, respectively. Chromatographic separation was achieved on a Waters Acquity® UPLC BEH Peptide C18 column (300 Å, 1.7 μm, 2.1 mm × 100 mm). The mobile phases consisted of 93/2/5 water/acetonitrile/DMSO (V/V/V) containing 0.1% formic acid (mobile phase A) and 2/93/5 water/acetonitrile/DMSO (V/V/V) containing 0.1% formic acid (mobile phase B), and the flow rate was set to 0.5 mL/min. A 10-μL aliquot from each sample was injected. The gradient program started with 80% of mobile phase A for 1 min, followed by a linear gradient to 40% of mobile phase A for 3.5 min. Gradient was then changed to 14.2% mobile phase A at 5 min, followed by a 1 min equilibration, before starting conditions were applied. EntF* retention time was between 4.25 and 4.45 min.

Caco-2 monolayer = Caco-2 monolayer permeability assay; format: in vitro ADME; conditions: for Kapp / Cumulative conc / Cumulative amount / Mean cumulative amount / Mean cumulative concentration / % Dose applied / Conc in receiver compartment: Caco-2 Transwell A -> B; for Kapp / Cumulative conc / Cumulative amount / Mean cumulative amount / Mean cumulative concentration: 1 µM EntF* apical; for Kapp / Conc in receiver compartment: LC1-MS1; for Cumulative conc / Cumulative amount / % Dose applied / Conc in receiver compartment: individual replicates A -> B (1)-(6); for Mean cumulative amount / Mean cumulative concentration: mean of n = 6; for % Dose applied: amount applied 0.4 nmol; for Conc in receiver compartment: dose solution 1 µM EntF* (0.4 nmol applied), cell vol 1.200 ml
Method: as §2, §1, §3, §4

CC(C)C[C@@H]1NC(=O)[C@H](CO)NC(=O)[C@H](Cc2ccccc2)NC(=O)[C@H](C(C)C)NC(=O)[C@@H](NC(=O)[C@H](CCC(=O)O)NC(=O)[C@@H](NC(=O)[C@H](CC(C)C)NC(=O)[C@H](CC(N)=O)NC(=O)[C@@H](N)CO)C(C)C)CSSC[C@@H](C(=O)N[C@@H](CC(N)=O)C(=O)O)NC(=O)[C@H](CCCCN)NC(=O)[C@H](CCCCN)NC(=O)[C@H](Cc2ccccc2)NC1=O (single isomer, unassigned) [EntF*]
E-cadherin level, EntF* only ([1]; HCT-8 cells, EntF* only, 24 h, relative to control, n = 15): 62%
Relative E-cadherin level (% of control), mean ([1]; mean of the replicates): 62.0
effect on E-cadherin expression in Caco-2 cells ([2]; 1 μM EntF* or CXCL12, 24 h, n = 6): statistically significant reduction
Relative E-cadherin in different cell lines, Average ([2]; CaCo-2 cells, average of n = 6): 40.1
Papp A→B [3]: 0.00367 ×10⁻⁶ cm/s
Kapp (Caco-2 monolayer; HBSS, replicate AB1): 2.13e-07 cm/min
Kapp (Caco-2 monolayer; HBSS, replicate AB2): 1.88e-07 cm/min
Kapp (Caco-2 monolayer; HBSS, replicate AB3): 2.21e-07 cm/min
Kapp (Caco-2 monolayer; HBSS, replicate AB4): 2.07e-07 cm/min
Kapp (Caco-2 monolayer; HBSS, replicate AB5): 2.81e-07 cm/min
Kapp (Caco-2 monolayer; HBSS, replicate AB6): 2.12e-07 cm/min
Cumulative conc (Caco-2 monolayer; HBSS, time 30 min): 43.732 pM and 39.850 pM and 48.195 pM and 54.684 pM and 29.485 pM and 29.005 pM
Cumulative amount (Caco-2 monolayer; HBSS, time 60 min): 30.299 amol and 45.664 amol and 39.602 amol and 52.014 amol and 67.922 amol and 37.955 amol
Cumulative conc (Caco-2 monolayer; HBSS, time 60 min): 25.249 pM and 38.053 pM and 33.002 pM and 43.345 pM and 56.602 pM and 31.630 pM
Cumulative amount (Caco-2 monolayer; HBSS, time 90 min): 46.426 amol and 46.765 amol and 42.758 amol and 52.183 amol and 67.818 amol and 43.254 amol
Cumulative conc (Caco-2 monolayer; HBSS, time 90 min): 38.688 pM and 38.971 pM and 35.631 pM and 43.485 pM and 56.515 pM and 36.045 pM
Cumulative amount (Caco-2 monolayer; HBSS, time 120 min): 37.088 amol and 40.742 amol and 47.116 amol and 44.500 amol and 55.592 amol and 38.733 amol
Cumulative conc (Caco-2 monolayer; HBSS, time 120 min): 30.906 pM and 33.952 pM and 39.263 pM and 37.084 pM and 46.326 pM and 32.277 pM
Mean cumulative amount (Caco-2 monolayer; time 30 min): 48.990 amol
Mean cumulative concentration (Caco-2 monolayer; time 30 min): 40.825 pM
Mean cumulative amount (Caco-2 monolayer; time 60 min): 45.576 amol
Mean cumulative concentration (Caco-2 monolayer; time 60 min): 37.980 pM
Mean cumulative amount (Caco-2 monolayer; time 90 min): 49.867 amol
Mean cumulative concentration (Caco-2 monolayer; time 90 min): 41.556 pM
Mean cumulative amount (Caco-2 monolayer; time 120 min): 43.962 amol
Mean cumulative concentration (Caco-2 monolayer; time 120 min): 36.635 pM
% Dose applied (Caco-2 monolayer; time 30 min): 13.120% and 11.955% and 14.459% and 16.405% and 8.846%
% Dose applied (Caco-2 monolayer; time 60 min): 7.575% and 11.416% and 9.901% and 13.004% and 16.980% and 9.489%
% Dose applied (Caco-2 monolayer; time 90 min): 11.606% and 11.691% and 10.689% and 13.046% and 16.954% and 10.813%
% Dose applied (Caco-2 monolayer; time 120 min): 9.272% and 10.185% and 11.779% and 11.125% and 13.898% and 9.683%
Conc in receiver compartment (Caco-2 monolayer; HBSS, time 0 min): 0.0217667 nM and 0.0386367 nM and 0.0252731 nM and 0.06096 nM and 0.0351635 nM and 0.0240173 nM
Conc in receiver compartment (Caco-2 monolayer; HBSS, time 30 min): 0.0382904 nM and 0.0301911 nM and 0.0418772 nM and 0.0394437 nM and 0.0206944 nM and 0.0230007 nM
Conc in receiver compartment (Caco-2 monolayer; HBSS, time 60 min): 0.0134944 nM and 0.0230389 nM and 0.015795 nM and 0.0265575 nM and 0.0315007 nM and 0.0176651 nM
Conc in receiver compartment (Caco-2 monolayer; HBSS, time 90 min): 0.02356 nM and 0.0181966 nM and 0.0144756 nM and 0.0200585 nM and 0.0235388 nM and 0.017664 nM
Conc in receiver compartment (Caco-2 monolayer; HBSS, time 120 min): 0.009888 nM and 0.0086284 nM and 0.0144888 nM and 0.008642 nM and 0.007466 nM and 0.009481 nM
apparent permeability coefficient (Papp) (Caco-2 monolayer; Caco-2 monolayer on Transwell polycarbonate filters (0.4 μm), apical to basolateral, HBSS, 1 μM peptide in apical chamber, aliquots 30, 60, 90, 120 min, LC1-MS1, linear curve fitting, mean ± SEM, n = 6): 3.67 ± 0.22 × 10^−9 cm s^−1
